According to patent US20060258601A1, “Formulation for inwardly transferring nucleic acids into eucaryotic cells” (priority 2002, published 2006):

Columns and labels:
Assay type in all cases: cell-based
[1] = system: human cultivated endothelial cells; test: Absorption of FITC-marked decoy oligonucleotide, fluorescence microscopy; details: for effect of transport inhibitors on accumulation/absorption of decoy oligonucleotides: human endothelial cells, methotrexate by comparison with folic acid; for concentration of the nucleic acids in the cell on co-incubation with nonsteroidal anti-inflammatory drug: 100 μmol/l co-incubation, 1 hour (FIG. 6)
Method: Human endothelial cells were isolated from umbilical veins by treatment with 1.6 U/ml dispase in Hepes-modified tyrode solution for 30 minutes at 37° C. and cultivated on gelatine-coated 6-well tissue-culture dishes (2 mg/ml gelatine in 0.1 M HCl for 30 minutes at room temperature) in 1.5 ml M199 medium (Gibco Life Technologies, Karlsruhe, Germany), containing 20% foetal calf serum, 50 U/ml penicillin, 50 μg/ml streptomycin, 10 U/ml nystatin, 5 mM HEPES and 5 mM TES, 1 μg/ml heparin and 40 μg/ml endothelial growth factor. […] Before the start of the experiment, the endothelial cells cultivated in the 24-well cell-culture plates were washed once with Ringer's solution at 37° C. (composition: 145 mmol/l Na^+, 5 mmol/l K^+, 156 mmol/l Cl^−, 2 mmol/l Ca^2+, 1 mmol/l Mg^2+, 10 mmol/l Hepes, 10 mmol/l D-glucose, pH 7.35). […] After an incubation period of up to 180 min at 37° C. and in ambient air, the cells were washed three times with 1 ml warm, non-modified Ringer's solution. The fluorescence intensities were recorded with the MicroMax CCD-camera (Princeton Instruments Inc., Trenton, N.J., USA), which was coupled to an Axiovert S100 TV microscope (Zeiss, Göttingen, Germany), with an excitation wavelength of 494 nm, an emission wavelength of 518 nm and 200× magnification. The fluorescence images (one image was taken for each portion of the experimental mixture) and the subsequent quantification was implemented using the MetaMorph V3.0 Software (Universal Imaging West Chester, Pa., USA). For the quantification, all fluorescence images for an experimental mixture were initially calibrated to an identical level of brightness and contrast. Following this, the software was used to determine an overall brightness integrated across the individual pixels for each image as a measure for the fluorescence intensity, thereby representing the intracellular concentration of the decoy oligonucleotide.

caveolin-1 = test: Western-blot analysis of caveolin-1 protein expression after antisense oligonucleotide treatment; details: human cultivated endothelial cells; antisense 0.5 μmol/l with lipofectin; n=3
Method: (§1) For an antisense mixture, 3% lipofectin (v/v) (Gibco Life Technologies) was added to 1 ml culture medium and incubated for 60 minutes at room temperature (RT). Following this, the corresponding antisense or control oligonucleotide (Eurogentec, Köln, Germany) was added in a final concentration of 0.5 μmol/l and incubated for a further 30 minutes at room temperature. At the start of the experiments, the corresponding quantities of heparin and endothelial growth factor were added, and the conventional cell culture medium of the endothelial cell culture was replaced by the antisense lipofectin medium. After 6 hours, the antisense lipofectin medium was removed and replaced by fresh cell culture medium; the Western-blot analysis and/or the fluorescence-microscopic analysis of the decoy-oligonucleotide absorption was carried out 24 hours after the transfection. […]
(§2) The human umbilical vein endothelial cells were opened by freezing successively five times in liquid nitrogen and thawing at 37° C. […] CD40 protein was detected with a polyclonal anti-human antibody (Research Diagnostics Inc., Flanders, N.J., USA). […]

[2] = system: reduced folic-acid-carrier; test: Western-blot analysis of reduced folic-acid-carrier protein expression after antisense oligonucleotide treatment; details: human cultivated endothelial cells; antisense 0.5 μmol/l with lipofectin; n=5
Method: as §1, §2

[3] = FITC-marked C/EBP decoy 10 μmol/l

5′-A*T*G*TCCCTCCGAGT*C*T*A-3′ [antisense oligonucleotide for caveolin-1]
effect on absorption of the decoy oligonucleotide ([1]; after inhibition of caveolin-1 expression, FITC-marked C/EBP decoy 10 μmol/l, 1 hour (FIG. 2)): significant restricttion | protein expression of caveolin-1 (caveolin-1): 37±10 % of the control

5′-C*A*A*A*GG*T*A*GC*A*C*A*CG*A*G-3′
inhibition of the decoy-oligonucleotide absorption ([1]; after antisense reduction of hFRC protein, FITC-marked C/EBP decoy 10 μmol/l, 1 hour (FIG. 4)): 45% | protein expression of the reduced folic-acid-carrier [2]: 33±10 % of the control

O=S(=O)(O)c1cc(N=C=S)ccc1C=Cc1ccc(N=C=S)cc1S(=O)(=O)O [DIDS, 4,4′-diisothiocyano-2,2′-stilben-disulfonic acid]
effect of transport inhibitors on accumulation/absorption of decoy oligonucleotides [1]: high sensitivity

CC(C(=O)O)c1ccc(-c2ccccc2)c(F)c1 (stereo not drawn) [flurbiprofen]
concentration of the nucleic acids in the cell on co-incubation with nonsteroidal anti-inflammatory drug [1, 3]: significantly increased

CC(C(=O)O)c1ccc(N2Cc3ccccc3C2=O)cc1 (stereo not drawn) [indoprofen]
concentration of the nucleic acids in the cell on co-incubation with nonsteroidal anti-inflammatory drug [1, 3]: significantly increased

CN(Cc1cnc2nc(N)nc(N)c2n1)c1ccc(C(=O)N[C@@H](CCC(=O)O)C(=O)O)cc1 [methotrexate]
effect of transport inhibitors on accumulation/absorption of decoy oligonucleotides [1]: considerably improved inhibition

CCCN(CCC)S(=O)(=O)c1ccc(C(=O)O)cc1 [probenicid]
effect of transport inhibitors on accumulation/absorption of decoy oligonucleotides [1]: probenicid-sensitive
